# In patent publication US20110300197A1, “FOOD PRODUCT” (Mars, Incorporation, priority 2008, published 2011):
# Experiments:
# Format in all cases: cell-based, dog
# [1] = system: biofilms representative of canine dental plaque; assay: Canine plate biofilm assay (PBA): biomass quantification (crystal violet assay); conditions: 48 hours, extracts at 500 μg/ml unless otherwise stated, OD595 vs no active control
# Description: (§1) The assay requires fresh supragingival canine dental plaque and saliva for inoculation. The inoculum consists of pooled dental plaque and unfiltered saliva sampled from a group of 14 dogs, varying in age, breed and oral health status.
# (§2) The plaque and saliva were resuspended in artificial saliva to form the inoculum of approximately 15% plaque and 30% saliva.
# (§3) The plate biofilm assay (PBA) utilises a 24 well plate format in which biofilms, representative of canine dental plaque, are grown on hydroxyapatite (HA) discs. Prior to being introduced to the 24 well assay plate, each HA disc is preconditioned for 2 hours in a solution of 50% filter sterilised canine saliva in artificial canine saliva. The preconditioning step stimulates the formation of a salivary pellicle on the HA disc surface. […] Each HA disc, with the exception of those being used for biomass quantification, is placed into 500 μl PBS and vortex mixed for 30 seconds to remove biofilm growth from the disc into solution. […] Biofilm-covered HA discs that are being used for biomass quantification are removed from the 24 well assay plate and used directly in the crystal violet assay.
# The total amount of biofilm grown on the HA discs was quantified using the crystal violet staining method. Biomass was represented as being directly proportional to the OD reading at 595 nm (0D595) of the samples compared to controls. […]
# [2] = system: trypsin-like protease activity; assay: Canine plate biofilm assay (PBA): trypsin-like protease activity (liquid BAPNA assay); conditions: 48 hours, extracts at 500 μg/ml unless otherwise stated, vs no active control
# Description: as §1, §2, §3
# Trypsin-like protease activity was measured using the liquid BAPNA assay, a colourimetric assay in which the amount of trypsin present in a sample is directly proportional to the intensity of the colour developed. […]
# Aerobes = assay: Canine plate biofilm assay (PBA): bacterial viable counts, aerobes; conditions: 48 hours, extracts at 500 μg/ml unless otherwise stated, vs no active control
# Description: as §1, §2
# as §3, with “saliva.” for “saliva. The preconditioning step stimulates the formation of a salivary pellicle on the HA disc surface.”
# (§4) Viable numbers of bacteria were quantified using Columbia blood agar plates supplemented with haemin and menadione. Aerobes were counted after incubation for 2 days and anaerobes, including black pigmenting colonies (BPC), were counted after incubation at appropriate conditions for 9 days. […]
# anaerobes = assay: Canine plate biofilm assay (PBA): bacterial viable counts, anaerobes; conditions: 48 hours, extracts at 500 μg/ml unless otherwise stated, vs no active control
# Description: as §1, §2
# as §3, with “saliva.” for “saliva. The preconditioning step stimulates the formation of a salivary pellicle on the HA disc surface.”
# as §4
# [3] = system: black pigmenting colonies (BPC); assay: Canine plate biofilm assay (PBA): bacterial viable counts, black pigmenting colonies; conditions: 48 hours, extracts at 500 μg/ml unless otherwise stated, vs no active control
# Description: as §1, §2
# as §3, with “saliva.” for “saliva. The preconditioning step stimulates the formation of a salivary pellicle on the HA disc surface.”
# as §4
compound,measurement,setting,value
"[H]/N=C(\N/C(=N/[H])NCCCCCCNC(=N)NC(=N)Nc1ccc(Cl)cc1)Nc1ccc(Cl)cc1 [Chlorhexidine, chlorhexidine]",Biomass (% reduction),[1],94.40%
same,Protease (% reduction),[2],95.76%
same,Aerobe (Log 10 reduction),Aerobes,2.87 Log 10
same,Anaerobe (Log 10 reduction),anaerobes,2.48 Log 10
same,BPC (Log 10 reduction),[3],2.74 Log 10
